# Experimental data published in PubChem BioAssay AID1963962 (Molecular Pharmacology Branch, DTP, NCI, 2024).
# Test system: 967376-340-R-J2-PDC multicell spheroid viability
# Experiment: Anticancer human tumor 967376-340-R-J2-PDC patient-derived colon adenocarcinoma cell line growth inhibition [PI3K]
# Details: for IC50: curve of first compound; for viability, T/C: stronger effect = lower value
# Outline: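 Tumor cells were combined with HUVEC and MSCs into spheroids, then dosed with PI3K-inhibitor combinations over half-log ranges capped near clinical Cmax or 10 microM.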
# [1] = second compound 0.00316 µM, first compound 0.0316 µM
# [2] = second compound 0.00316 µM, first compound 0.1 µM
# [3] = second compound 0.00316 µM, first compound 0.316 µM
# [4] = second compound 0.00316 µM, first compound 1 µM
# [5] = second compound 0.00316 µM, first compound 3.16 µM
# [6] = second compound 0.00316 µM, first compound 10 µM
# [7] = second compound 0.01 µM, first compound 0.0316 µM
# [8] = second compound 0.01 µM, first compound 0.1 µM
# [9] = second compound 0.01 µM, first compound 0.316 µM
# [10] = second compound 0.01 µM, first compound 1 µM
# [11] = second compound 0.01 µM, first compound 3.16 µM
# [12] = second compound 0.01 µM, first compound 10 µM
# [13] = second compound 0.0316 µM, first compound 0.0316 µM
# [14] = second compound 0.0316 µM, first compound 0.1 µM
# [15] = second compound 0.0316 µM, first compound 0.316 µM
# [16] = second compound 0.0316 µM, first compound 1 µM
# [17] = second compound 0.0316 µM, first compound 3.16 µM
# [18] = second compound 0.0316 µM, first compound 10 µM
# [19] = second compound 0.1 µM, first compound 0.0316 µM
# [20] = second compound 0.1 µM, first compound 0.1 µM
# [21] = second compound 0.1 µM, first compound 0.316 µM
# [22] = second compound 0.1 µM, first compound 1 µM
# [23] = second compound 0.1 µM, first compound 3.16 µM
# [24] = second compound 0.1 µM, first compound 10 µM
# [25] = second compound 0.316 µM, first compound 0.0316 µM
# [26] = second compound 0.316 µM, first compound 0.1 µM
# [27] = second compound 0.316 µM, first compound 0.316 µM
# [28] = second compound 0.316 µM, first compound 1 µM
# [29] = second compound 0.316 µM, first compound 3.16 µM
# [30] = second compound 0.316 µM, first compound 10 µM
# [31] = second compound 1 µM, first compound 0.0316 µM
# [32] = second compound 1 µM, first compound 0.1 µM
# [33] = second compound 1 µM, first compound 0.316 µM
# [34] = second compound 1 µM, first compound 1 µM
# [35] = second compound 1 µM, first compound 3.16 µM
# [36] = second compound 1 µM, first compound 10 µM
# 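Also: spheroids exposed to agents for 7 days before read-out.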
# 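For viability, T/C in this document: luminescence used as surrogate of cell viability.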
smiles,measurement,setting,value
CCCS(=O)(=O)Nc1ccc(F)c(C(=O)c2c[nH]c3ncc(-c4ccc(Cl)cc4)cc23)c1F + COc1c(OCCCN2CCOCC2)ccc2c3n(c(=NC(=O)c4cnc(N)nc4)nc12)CCN3,IC50,second compound 0.00316 µM,> 10000 nM
same,IC50,second compound 0.01 µM,> 10000 nM
same,IC50,second compound 0.0316 µM,> 10000 nM
same,IC50,second compound 0.1 µM,> 10000 nM
same,IC50,second compound 0.316 µM,< 31.6 nM
same,IC50,second compound 1 µM,< 31.6 nM
same,"viability, T/C",[1],94.8%
same,"viability, T/C",[2],94.7%
same,"viability, T/C",[3],82.8%
same,"viability, T/C",[4],101%
same,"viability, T/C",[5],74.3%
same,"viability, T/C",[6],59.6%
same,"viability, T/C",[7],104%
same,"viability, T/C",[8],78.9%
same,"viability, T/C",[9],81.8%
same,"viability, T/C",[10],73.6%
same,"viability, T/C",[11],90%
same,"viability, T/C",[12],61.8%
same,"viability, T/C",[13],68.1%
same,"viability, T/C",[14],63.4%
same,"viability, T/C",[15],73.8%
same,"viability, T/C",[16],79%
same,"viability, T/C",[17],69.7%
same,"viability, T/C",[18],69.1%
same,"viability, T/C",[19],63.2%
same,"viability, T/C",[20],58.5%
same,"viability, T/C",[21],77%
same,"viability, T/C",[22],51.1%
same,"viability, T/C",[23],63%
same,"viability, T/C",[24],54%
same,"viability, T/C",[25],39.4%
same,"viability, T/C",[26],36.5%
same,"viability, T/C",[27],57.1%
same,"viability, T/C",[28],34.6%
same,"viability, T/C",[29],68.1%
same,"viability, T/C",[30],58.8%
same,"viability, T/C",[31],31.6%
same,"viability, T/C",[32],41.6%
same,"viability, T/C",[33],25.8%
same,"viability, T/C",[34],46.1%
same,"viability, T/C",[35],41%
same,"viability, T/C",[36],34.8%
C[C@@H](NC(=O)c1ncnc(N)c1Cl)c1ncc(C(=O)Nc2cc(C(F)(F)F)c(Cl)cn2)s1 + COc1c(OCCCN2CCOCC2)ccc2c3n(c(=NC(=O)c4cnc(N)nc4)nc12)CCN3,IC50,second compound 0.00316 µM,> 10000 nM
same,IC50,second compound 0.01 µM,> 10000 nM
same,IC50,second compound 0.0316 µM,> 10000 nM
same,IC50,second compound 0.1 µM,> 10000 nM
same,IC50,second compound 0.316 µM,< 31.6 nM
same,IC50,second compound 1 µM,< 31.6 nM
same,"viability, T/C",[1],94.3%
same,"viability, T/C",[2],86.9%
same,"viability, T/C",[3],80.6%
same,"viability, T/C",[4],89.7%
same,"viability, T/C",[5],120%
same,"viability, T/C",[6],123%
same,"viability, T/C",[7],93.2%
same,"viability, T/C",[8],84.5%
same,"viability, T/C",[9],91.9%
same,"viability, T/C",[10],100%
same,"viability, T/C",[11],112%
same,"viability, T/C",[12],91.3%
same,"viability, T/C",[13],67.7%
same,"viability, T/C",[14],77.1%
same,"viability, T/C",[15],71.9%
same,"viability, T/C",[16],63%
same,"viability, T/C",[17],93.3%
same,"viability, T/C",[18],107%
same,"viability, T/C",[19],66.6%
same,"viability, T/C",[20],51.5%
same,"viability, T/C",[21],70.1%
same,"viability, T/C",[22],62.7%
same,"viability, T/C",[23],62.8%
same,"viability, T/C",[24],70.2%
same,"viability, T/C",[25],49%
same,"viability, T/C",[26],49.6%
same,"viability, T/C",[27],49.2%
same,"viability, T/C",[28],43.2%
same,"viability, T/C",[29],56.6%
same,"viability, T/C",[30],62.6%
same,"viability, T/C",[31],43%
same,"viability, T/C",[32],33%
same,"viability, T/C",[33],38.5%
same,"viability, T/C",[34],38.1%
same,"viability, T/C",[35],45.7%
same,"viability, T/C",[36],45%
Cn1ncnc1[C@H]1c2n[nH]c(=O)c3cc(F)cc(c23)N[C@@H]1c1ccc(F)cc1 + COc1c(OCCCN2CCOCC2)ccc2c3n(c(=NC(=O)c4cnc(N)nc4)nc12)CCN3,IC50,second compound 0.00316 µM,> 100 nM
same,IC50,second compound 0.01 µM,> 100 nM
same,IC50,second compound 0.0316 µM,> 100 nM
same,IC50,second compound 0.1 µM,> 100 nM
same,IC50,second compound 0.316 µM,< 0.316 nM
same,IC50,second compound 1 µM,< 0.316 nM
same,"viability, T/C","second compound 0.00316 µM, first compound 0.000316 µM",102%
same,"viability, T/C","second compound 0.00316 µM, first compound 0.001 µM",95%
same,"viability, T/C","second compound 0.00316 µM, first compound 0.00316 µM",76.1%
same,"viability, T/C","second compound 0.00316 µM, first compound 0.01 µM",97%
same,"viability, T/C",[1],88.7%
same,"viability, T/C",[2],105%
same,"viability, T/C","second compound 0.01 µM, first compound 0.000316 µM",76.6%
same,"viability, T/C","second compound 0.01 µM, first compound 0.001 µM",94.9%
same,"viability, T/C","second compound 0.01 µM, first compound 0.00316 µM",81.1%
same,"viability, T/C","second compound 0.01 µM, first compound 0.01 µM",73.9%
same,"viability, T/C",[7],80.5%
same,"viability, T/C",[8],87.9%
same,"viability, T/C","second compound 0.0316 µM, first compound 0.000316 µM",85.2%
same,"viability, T/C","second compound 0.0316 µM, first compound 0.001 µM",90.4%
same,"viability, T/C","second compound 0.0316 µM, first compound 0.00316 µM",74.5%
same,"viability, T/C","second compound 0.0316 µM, first compound 0.01 µM",70.9%
same,"viability, T/C",[13],66.8%
same,"viability, T/C",[14],73.4%
same,"viability, T/C","second compound 0.1 µM, first compound 0.000316 µM",53.3%
same,"viability, T/C","second compound 0.1 µM, first compound 0.001 µM",70.4%
same,"viability, T/C","second compound 0.1 µM, first compound 0.00316 µM",56.5%
same,"viability, T/C","second compound 0.1 µM, first compound 0.01 µM",53.5%
same,"viability, T/C",[19],62.5%
same,"viability, T/C",[20],56.4%
same,"viability, T/C","second compound 0.316 µM, first compound 0.000316 µM",42.1%
same,"viability, T/C","second compound 0.316 µM, first compound 0.001 µM",40.9%
same,"viability, T/C","second compound 0.316 µM, first compound 0.00316 µM",44.6%
same,"viability, T/C","second compound 0.316 µM, first compound 0.01 µM",36.2%
same,"viability, T/C",[25],52.7%
same,"viability, T/C",[26],43.2%
same,"viability, T/C","second compound 1 µM, first compound 0.000316 µM",27.8%
same,"viability, T/C","second compound 1 µM, first compound 0.001 µM",26.8%
same,"viability, T/C","second compound 1 µM, first compound 0.00316 µM",39.8%
same,"viability, T/C","second compound 1 µM, first compound 0.01 µM",55.2%
same,"viability, T/C",[31],32.9%
same,"viability, T/C",[32],26.9%
